In general, Ki refers to a measure of affinity in units of concentration, obtained from inhibition or displacement. A low value points to tighter binding.

The record followed here is BindingDB's records for PubMed 1650832 (Pfizer, 1991).

In the assay the target is T1, Cysteinyl leukotriene receptor 2 (Cavia porcellus, UniProt Q2NNR4).
T1 sequence (Q2NNR4 whole entry): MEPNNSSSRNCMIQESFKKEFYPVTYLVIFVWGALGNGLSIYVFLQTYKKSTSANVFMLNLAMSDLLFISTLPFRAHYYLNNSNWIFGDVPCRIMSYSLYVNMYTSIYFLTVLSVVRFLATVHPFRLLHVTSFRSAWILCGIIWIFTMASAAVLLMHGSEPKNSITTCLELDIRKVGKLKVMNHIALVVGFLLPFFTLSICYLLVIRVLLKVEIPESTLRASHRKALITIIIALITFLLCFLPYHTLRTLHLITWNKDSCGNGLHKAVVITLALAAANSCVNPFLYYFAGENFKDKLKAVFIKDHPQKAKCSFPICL

On to `CCCCCC=CCC=CC=CC=CC(SCC(NC(=O)CCC(N)C(=O)O)C(=O)NCC(=O)O)C(O)CCCC(=O)O` (centres undefined) [CAS_5283121], for which the affinity corresponds to a Ki of 178 nM. In other words, the sub-micromolar range.
Compound `CCCCC/C=C\C\C=C/C=C/C=C/[C@@H](SC[C@H](N)C(=O)O)[C@@H](O)CCCC(=O)O` [(5S-(5R*,6S*(S*),7E,9E,11Z,14Z))-6-((2-Amino-2-carboxyethyl)thio)-5-hydroxy-7,9,11,14-eicosatetraenoic acid] yielded a Ki of 35.5 nM. Compared with the last compound, the Ki is about 5-fold lower.
Regarding `CCCCC/C=C\C\C=C/C=C/C=C/[C@@H](SC[C@H](N)C(=O)NCC(=O)O)[C@@H](O)CCCC(=O)O` [5S-hydroxy-6R-(S-cysteinylglycinyl)-7E,9E,11E,14Z-eicosatetraenoic acid], the inhibitory constant (Ki) came out at 0.49 nM. This Ki lies about 72-fold lower than the previous one.
On to `COc1cc(C(=O)NS(=O)(=O)c2ccccc2)ccc1Cn1ncc2ccc(NC(=O)OC3CCCC3)cc21`, for which affinity was put at a Ki of 6.89 nM.
